Counter-ions that a name gives are not always drawn.
Legend:
tumor site = assay: CT imaging of nano-vesicles in mice (Example 20); assay type: in vivo; settings: tail vein, circulation after 40 minutes
Procedure: By the changing CT value in FIG. 10 can be seen, after a 4 hour cycle, CT change of cRGD20/CLPs was the highest, followed by CLPs, and lowest in the control group, after 7 hours of circulation, CT value of cRGD20/CLPs is 2 times and 10 times than the other two groups.

[1] = Blood circulation of drug-loaded vesicles; settings: nude Balb/C, mouse, whole blood, intravenous, 10 mg/kg
Procedure: The blood samples (approximately 10 μL) were collected at time points of 0, 0.25, 0.5, 1, 2, 4, 8, 12 and 24 h. The exact weight of the blood was determined through weighing by difference method, then 100 μL Triton (concentration: 1%) and 500 μL DMF (which contained 20 mM DTT, 1 M HCl) were added. The sample was subjected to extraction, followed by centrifugation (20,000 rpm, 20 min).

B16 tumor = assay: Antitumor effect and weight change in mice bearing B16 tumor; assay type: in vivo, Nude Balb/C mice
Source text: After 2 weeks, when the size of the tumors was 30-50 mm^3, the experiment began. […] From Day 0 to 18, the body weight of the mice in each group was weighed every two days. The size of the tumor was precisely measured with Vernier scale, where the method for calculating the volume of tumors was: V=(L×W×H)/2, (where L was the length of the tumor, W was the width of the tumor, H was the thickness of the tumor). The survival of the mice was observed continuously till the 45th day.

[2] = Maximum tolerated dose (MTD); settings: nude Balb/C, mouse, in vivo
Source text: Nude Balb/C mice with body weight of about 18-20 g, aged 4-6 weeks were used. […] The standard for MTD was non accidental death in mice or weight less than 15% in mice.

CC(=O)N(CC(O)CO)c1c(I)c(C(=O)NCC(O)CO)c(I)c(C(=O)NCC(O)CO)c1I (centres unmarked) [iohexol]
contrast signal in the bladder (tumor site): contrast strong signal

COc1cccc2c1C(=O)c1c(O)c3c(c(O)c1C2=O)C[C@@](O)(C(=O)CO)C[C@@H]3O[C@H]1C[C@H](N)[C@H](O)[C@H](C)O1 [DOX.HCl, doxorubicin hydrochloride]
half-life [1]: 7.8 min | tumor growth (B16 tumor; DOX.HCl 10 mg/kg at 0, 4, 8, 12 day, 19-day treatment): may also inhibit tumor expansion | body weight decrease (B16 tumor; in 7 days, DOX.HCl 10 mg/kg): 20% | MTD at 10 days [2]: < 10 mg/kg

From patent US10336720B2, “Cyclic carbonate monomer containing double iodine, biodegradable polymer prepared thereby and use” (SOOCHOW UNIVERSITY, priority 2015, dated 2019)
